Patent publication EP2077092A2, “System and Methods for Screening or Analyzing Targets” (Taipei Veterans General Hospital, priority 2007, dated 2009)
Each block holds one compound with its values, some of them ahead of it.

Legend:
[1] = tested on: c-FLIP promoter; experiment: c-FLIP promoter luciferase assay in fluoxetine-treated NSCs; format: cell-based, Sprague-Dawley rats; settings: fluoxetine 20 µm; full-length and deletion mutants of the c-FLIP promoter in NSCs
Method: (§1) All animal used were treated in accordance with the Animal Care and Use Committee guideline at Taipei Veterans General Hospital. Adult Sprague-Dawley rats (8 weeks old, 250 g) were anesthetized with intraperitoneal phenobarbital (Sigma, USA). The location of their brains was mapped: then, the brain was surgically separated from the hippocampus region with the procedure. Tissues from the hippocampus of the adult SD rats were dissociated and incubated in Hank's balanced salt solution (HB'SS) containing collagenase (78 units/ml) and hyaluronidase (38 units/ml) for 10 mins at 37°C. The tissues were then mechanically dissected and placed in a trypsin solution (1.33 mg/ml) at 37°C for another 10 mins. Dissociated cells were then centrifuged at 150g for 5 mins. The enzyme solution was then removed and replaced with serum-free culture media composed of Dulbecco modified Eagle medium (DMEM) and F-12 nutrient (1:1) including insulin (25 µg/mL), transferrin (100 µg/mL), progesterone (20 nM), putrescine (60µM), sodium selenite (30 nM), and human […] epidermal growth factor (EGF) 20 ng/mL and fibroblast growth factor-basic (bFGF) 20 ng/mL (R&D Systems, Minneapolis, MN). Viable cells were counted by trypan blue exclusion and plated as 5000 cells/200 µL per well in 96-well plates (Corning, Acton, MA) with no substrate pretreatment. […]

[2] = tested on: c-FLIP; experiment: c-FLIP mRNA expression in fluoxetine-treated NSCs (real-time RT-PCR); format: cell-based, Sprague-Dawley rats; settings: FL-treated NSCs
Method: (§2) All animal used were treated in accordance with the Animal Care and Use Committee guideline at Taipei Veterans General Hospital. Adult Sprague-Dawley rats (8 weeks old, 250 g) were anesthetized with intraperitoneal phenobarbital (Sigma, USA). The location of their brains was mapped: then, the brain was surgically separated from the hippocampus region with the procedure. Tissues from the hippocampus of the adult SD rats were dissociated and incubated in Hank's balanced salt solution (HB'SS) containing collagenase (78 units/ml) and hyaluronidase (38 units/ml) for 10 mins at 37°C. The tissues were then mechanically dissected and placed in a trypsin solution (1.33 mg/ml) at 37°C for another 10 mins. Dissociated cells were then centrifuged at 150g for 5 mins. […] Viable cells were counted by trypan blue exclusion and plated as 5000 cells/200 µL per well in 96-well plates (Corning, Acton, MA) with no substrate pretreatment.
For real-time RT-PCR, the total RNA was extracted using the RNAeasy kit (Qiagen, Valencia, CA, USA) as previously described C.L. Kao et al., Mod Pathol 18 (2005) 769-778.[15]. […] The quantification in the unknown samples was performed by the LightCycler Relative Quantification Software version 3.3 (Roche Molecular Systems, Alameda, CA, USA). […]

[3] = tested on: c-FLIPL; experiment: c-FLIP protein expression in fluoxetine-treated NSCs (Western analysis); format: cell-based, Sprague-Dawley rats; settings: FL-treated NSCs
Method: as §2, with “pretreatment. […]” for “pretreatment.”
An avidin-biotin complex method was used for the immunohistochemical staining in the differentiated NSCs. […] Immunoreactive signals were detected with a mixture of biotinylated rabbit antimouse IgG and Fluoesave (Calbiochem, La Jolla, CA, USA) under immunofluorescent microscope (Olympus FV300).

[4] = tested on: inactive caspases 8 (pro-form); experiment: Protein level of inactive caspase 8 (pro-form) in fluoxetine-treated NSCs; format: cell-based, Sprague-Dawley rats; settings: different concentrations of fluoxetine treatment
Method: as §1

[5] = tested on: inactive caspases 3 (pro-form); experiment: Protein level of inactive caspase 3 (pro-form) in fluoxetine-treated NSCs; format: cell-based, Sprague-Dawley rats; settings: different concentrations of fluoxetine treatment
Method: as §1

[6] = parameters: species or system Sprague-Dawley rats; settings: in vivo, iv, 30 mg/kg, 360 min
Method: Adult, male Sprague-Dawley rats (280-350 g) were obtained from the Laboratory Animal Center at National Yang-Ming University (Taipei, Taiwan). These animals were specifically pathogen-free and were allowed to acclimate to their environmentally controlled quarters (24 ± 1°C and 12:12 h light-dark cycle) for at least 5 days before the experiments began. At the start of experiments, the rats were anesthetized with urethane 0.8 g/ml and chloralose 0.08 g/ml ([…], i.p.). Throughout the experimental period, anesthesia was maintained by administering one quarter of the initial dose at each hour. The experimental animals were kept warm with a heating pad throughout the experiments.
The HPLC system consisted of a chromatographic pump (BAS PM-80, Bioanalytical System, West Lafayette, IN, USA), an on-line injector (CMA/160, Stockholm, Sweden) equipped with a 20 µl sample loop and a UV detector (Soma S-3702, Tokyo, Japan). […] Output signal from the HPLC-UV was recorded using an EZChrom chromatographic data system (Scientific Software, San Ramon, CA, USA). […]
For in vivo recovery, normal saline solution containing cefoperazone (50 or 100 µg/ml) were pumped through the probes at a constant flow rate (2 µl/min) using the infusion pump (CMA/100). After a stabilization period of 2 h, the inlet (Cin) and outlet (Cout) concentrations of cefoperazone were determined by HPLC. […]

[7] = tested on: Bcl-2 protein; experiment: Bcl-2 protein expression in NSCs by western blot and immunohistochemistry; format: cell-based, Sprague-Dawley (SD) rats; settings: siRNA or MAPK inhibitor added to IM-treated NSCs
[8] = tested on: LPS-treated NSCs; experiment: MTT cell survival of LPS-treated NSCs; format: cell-based, Sprague-Dawley (SD) rats; settings: siRNA or U0126 added to LPS- and IM-treated NSCs
[9] = tested on: caspase 8; experiment: Caspase 8 activity ELISA in LPS-treated NSCs; format: cell-based, Sprague-Dawley (SD) rats; settings: siRNA or U0126 (40 µM) added to LPS- and IM-treated NSCs
[10] = tested on: caspase 3; experiment: Caspase 3 activity ELISA in LPS-treated NSCs; format: cell-based, Sprague-Dawley (SD) rats; settings: siRNA or U0126 (40 µM) added to LPS- and IM-treated NSCs
[11] = tested on: LPS-treated NSCs; experiment: TUNEL assay of LPS-induced apoptosis in NSCs; format: cell-based, Sprague-Dawley (SD) rats; settings: siRNA or U0126 (40 µM) added to LPS- and IM-treated NSCs
[12] = tested on: IL-1β; experiment: IL-1β ELISA in LPS-treated NSCs; format: cell-based, Sprague-Dawley (SD) rats; settings: siRNA or U0126 (40 µM) added to LPS- and IM-treated NSCs
[13] = tested on: IL-6; experiment: IL-6 ELISA in LPS-treated NSCs; format: cell-based, Sprague-Dawley (SD) rats; settings: siRNA or U0126 (40 µM) added to LPS- and IM-treated NSCs
[14] = tested on: TNF-α; experiment: TNF-α ELISA in LPS-treated NSCs; format: cell-based, Sprague-Dawley (SD) rats; settings: siRNA or U0126 (40 µM) added to LPS- and IM-treated NSCs
[15] = tested on: NSCs; experiment: Immunofluorescent assay of MAP-2-positive cells in differentiating NSCs; format: cell-based, Sprague-Dawley (SD) rats; settings: siRNA or U0126 added, Day 7 culture of IM-treated NSCs
[16] = tested on: NSCs; experiment: Immunofluorescent assay of serotonin (5-HT)-positive cells in differentiating NSCs; format: cell-based, Sprague-Dawley (SD) rats; settings: siRNA or U0126 added, Day 7 culture of IM-treated NSCs
[17] = tested on: NSCs; experiment: Microdialysis with HPLC-ECD of 5-HT in the culture medium of IM-treated NSCs; format: cell-based, Sprague-Dawley (SD) rats; settings: siRNA or U0126 added, Day 7 and Day 14, p<0.05

SMILES: CNCCC(Oc1ccc(C(F)(F)F)cc1)c1ccccc1 (centres unmarked) [FL, fluoxetine]
activation of c-FLIP promoter (luciferase assay) [1]: c-FLIP promoter region from bp -414 to -133 was necessary for its activation by FL
mRNA expression of c-FLIP [2]: up-regulated
protein expression of c-FLIP [3]: up-regulated
protein levels of inactive caspases 8 (pro-form) [4]: not decreased
protein levels of inactive caspases 3 (pro-form) [5]: not decreased

cefoperazone in microdialysate from rat biliary duct [6]: 27.8 µg/mL
SMILES: CCN1CCN(C(=O)N[C@@H](C(=O)N[C@@H]2C(=O)N3C(C(=O)O)=C(CSc4nnnn4C)CS[C@H]23)c2ccc(O)cc2)C(=O)C1=O [cefoperazone]

SMILES: N#CC(=C(/N)Sc1ccccc1N)/C(C#N)=C(\N)Sc1ccccc1N [U0126]
Bcl-2 expression induced by IM in NSCs [7]: effectively blocked
cell viability in the LPS-treated NSCs with IM [8]: dramatically decreased
apoptotic activities (caspase 8) in LPS- and IM-treated NSCs [9]: significantly enhanced
apoptotic activities (caspase 3) in LPS- and IM-treated NSCs [10]: significantly enhanced
apoptotic activities (TUNEL) in LPS- and IM-treated NSCs [11]: significantly enhanced
levels of IL-1β in LPS-treated NSCs with IM [12]: significantly increased
levels of IL-6 in LPS-treated NSCs with IM [13]: significantly increased
levels of TNF-α in LPS-treated NSCs with IM [14]: significantly increased
percentages of MAP-2-positive cells in IM-treated NSCs [15]: significantly decrease
percentages of serotonin (5-HT)-positive cells in IM-treated NSCs [16]: significantly decrease
production of 5-HT of the IM-treated NSCs [17]: significantly diminished
